Laboratory results published in patent US20180071317A1, “USE OF AGENTS THAT ALTER THE PERITUMORAL ENVIRONMENT FOR THE TREATMENT OF CANCER” (SERVICIO ANDALUZ DE SALUD, priority 2011, published 2018).

Columns and labels:
[1] = tested on: fibroblasts (PHF) co-cultured with human neuroblastoma tumor cells (KELLY); experiment: Marker expression (IHC) in PHF co-cultured with KELLY tumor cells; format: cell-based;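 further: Co-cultures grown on healthy-donor human blood plasma, run in six replicates, value is percentage of fibroblasts positive for each marker, compared with fibroblasts cultured alone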
[2] = tested on: cell line C-12210 (microvascular endothelial cells); experiment: Proliferation of C-12210 endothelial cell cultures (MTS); format: cell-based, human;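 further: MTS colorimetric read-out in culture wells, absorbance at 492 nm with 690 nm reference, MTS added 90 min before reading, blank without cells, compared with untreated control cells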
[3] = tested on: human primary macrophages (PHM); experiment: IL-8 Western blotting in human primary macrophages; format: cell-based; conditions: cultured in the presence of SP
Source text: Further cells that make up the microenvironment are peritumoral macrophage lineage cells that are of great importance in the development of the microenvironment around the tumor, by interacting with tumor cells to stimulate their growth and spread by secretion into the medium of different markers that promote the expansion and growth of tumors. In this sense the next step was to analyze the effect exerted by the treatment with non-peptide NK1 antagonists in human primary macrophages (PHM) obtained and purified from pleural effusion samples obtained from men with chronic age range between 45 and 55 years. Briefly, the pleural fluid from chronic (rich in macrophages) was centrifuged. […]
Similar results were obtained in the case of TNF-α, respect to its expression to those obtained using the other markers analyzed: EGF, MMP-9 and VEGF, i.e., the treatment with the non-peptide receptor NK1 inhibited the TNF-α marker expression. Also the presence of IL-8 were determined by Western blotting, as explained in Example 1, using […] primary antibody (AB1427, Merck-Millipore).

[4] = tested on: tumor cells from primary human tumors (MAP Kinase pathway); experiment: Proliferation of primary human tumor cells (ERK modified or unchanged) alone or with stromal fibroblasts; format: cell-based; conditions: antagonist 1 μM
[5] = tested on: tumor cells from primary human tumors (PI3 Kinase pathway); experiment: Proliferation of primary human tumor cells (AKT modified or unchanged) alone or with stromal fibroblasts; format: cell-based; conditions: antagonist 1 μM
[6] = tested on: tumor cells from primary human tumors (MAP Kinase pathway); experiment: Proliferation of primary human tumor cells (ERK modified or unchanged) alone or with macrophages; format: cell-based; conditions: antagonist 1 μM
[7] = tested on: tumor cells from primary human tumors (PI3 Kinase pathway); experiment: Proliferation of primary human tumor cells (AKT modified or unchanged) alone or with macrophages; format: cell-based; conditions: antagonist 1 μM
[8] = tested on: primary human tumor cells; experiment: Proliferation of primary human tumor cells with low dose Aprepitant alone or with fibroblasts, leukocytes or macrophages; conditions: low dose (5 nanomolar)
[9] = PHF co-cultured with KELLY + SP + NK1 antagonist
[10] = PHF co-cultured with KELLY + SP
[11] = irrespective of MAP Kinases pathway integrity

Cc1cc(F)ccc1[C@H]1CNCCN1C(=O)N(C)[C@H](C)c1cc(C(F)(F)F)cc(C(F)(F)F)c1 [Vestipitant]
cells expressing MMP-3 [1, 9]: 0% | cells expressing MMP-7 [1, 9]: 0% | cells expressing MMP-9 [1, 9]: 0% | cells expressing MMP-11 [1, 9]: 0% | cells expressing MMP-13 [1, 9]: 0% | cells expressing MMP-14 [1, 9]: 0% | cells expressing SPARC [1, 9]: 0% | cells expressing TGF-α [1, 9]: 0% | cells expressing TGF-β1 [1, 9]: 0% | cells expressing TGF-β2 [1, 9]: 0% | cells expressing TGF-β3 [1, 9]: 0%

CSCC[C@H](NC(=O)[C@H](CC(C)C)NC(=O)CNC(=O)[C@H](Cc1ccccc1)NC(=O)[C@H](Cc1ccccc1)NC(=O)[C@H](CCC(N)=O)NC(=O)[C@H](CCC(N)=O)NC(=O)[C@@H]1CCCN1C(=O)[C@H](CCCCN)NC(=O)[C@@H]1CCCN1C(=O)[C@@H](N)CCCNC(=N)N)C(N)=O [SP]
proliferation, percentage of control ± SD ([2]; SP 10 nM, exposure 0 h): 102.2 ± 1% | proliferation, percentage of control ± SD ([2]; SP 10 nM, exposure 24 h): 119.1 ± 1.8% | proliferation, percentage of control ± SD ([2]; SP 10 nM, exposure 48 h): 139.3 ± 3.1% | proliferation, percentage of control ± SD ([2]; SP 10 nM, exposure 72 h): 134.3 ± 2.8% | proliferation, percentage of control ± SD ([2]; SP 100 nM, exposure 0 h): 109.5 ± 2.9% | proliferation, percentage of control ± SD ([2]; SP 100 nM, exposure 24 h): 17 ± 2.7% | proliferation, percentage of control ± SD ([2]; SP 100 nM, exposure 48 h): 21 ± 2.6% | proliferation, percentage of control ± SD ([2]; SP 100 nM, exposure 72 h): 32.4 ± 3.3% | proliferation, percentage of control ± SD ([2]; SP 500 nM, exposure 0 h): 128.9 ± 2.7% | proliferation, percentage of control ± SD ([2]; SP 500 nM, exposure 24 h): 137 ± 3.8% | proliferation, percentage of control ± SD ([2]; SP 500 nM, exposure 48 h): 146 ± 4.7% | proliferation, percentage of control ± SD ([2]; SP 500 nM, exposure 72 h): 158.5 ± 4.6% | proliferation, percentage of control ± SD ([2]; SP 1 μM, exposure 0 h): 175.3 ± 5.2% | proliferation, percentage of control ± SD ([2]; SP 1 μM, exposure 24 h): 186 ± 6.3% | proliferation, percentage of control ± SD ([2]; SP 1 μM, exposure 48 h): 194.4 ± 6.5% | proliferation, percentage of control ± SD ([2]; SP 1 μM, exposure 72 h): 199 ± 5.5% | proliferation, percentage of control ± SD ([2]; SP 50 μM, exposure 0 h): 218 ± 3.5% | proliferation, percentage of control ± SD ([2]; SP 50 μM, exposure 24 h): 242 ± 6.7% | proliferation, percentage of control ± SD ([2]; SP 50 μM, exposure 48 h): 247 ± 6.5% | proliferation, percentage of control ± SD ([2]; SP 50 μM, exposure 72 h): 259.4 ± 4.1% | proliferation, percentage of control ± SD ([2]; SP 100 μM, exposure 0 h): 236.4 ± 5.6% | proliferation, percentage of control ± SD ([2]; SP 100 μM, exposure 24 h): 258 ± 4.5% | proliferation, percentage of control ± SD ([2]; SP 100 μM, exposure 48 h): 259.5 ± 4.6% | proliferation, percentage of control ± SD ([2]; SP 100 μM, exposure 72 h): 266.9 ± 6.8% | effect on growth/proliferation of C-12210 cells (in words) ([2]; increasing concentrations): stimulating effect on the growth of human endothelial cells | IL-8 expression in macrophages, Western blotting (in words) [3]: showed expression of this marker | cells expressing MMP-3 [1, 10]: 45.4 ± 4.7% | cells expressing MMP-7 [1, 10]: 57.4 ± 3.8% | cells expressing MMP-9 [1, 10]: 51.2 ± 2.4% | cells expressing MMP-11 [1, 10]: 29.4 ± 4.8% | cells expressing MMP-13 [1, 10]: 44.3 ± 4.5% | cells expressing MMP-14 [1, 10]: 51.2 ± 4.2% | cells expressing SPARC [1, 10]: 46.5 ± 4.2% | cells expressing TGF-α [1, 10]: 42.4 ± 3.1% | cells expressing TGF-β1 [1, 10]: 36.5 ± 2.1% | cells expressing TGF-β2 [1, 10]: 42.2 ± 2.2% | cells expressing TGF-β3 [1, 10]: 43.4 ± 2.3%

C[C@@H](O[C@H]1OCCN(Cc2n[nH]c(=O)[nH]2)[C@H]1c1ccc(F)cc1)c1cc(C(F)(F)F)cc(C(F)(F)F)c1 [Aprepitant]
cells expressing MMP-3 [1, 9]: 0% | cells expressing MMP-7 [1, 9]: 0% | cells expressing MMP-9 [1, 9]: 0% | cells expressing MMP-11 [1, 9]: 0% | cells expressing MMP-13 [1, 9]: 0% | cells expressing MMP-14 [1, 9]: 0% | cells expressing SPARC [1, 9]: 0% | cells expressing TGF-α [1, 9]: 0% | cells expressing TGF-β1 [1, 9]: 0% | cells expressing TGF-β2 [1, 9]: 0% | cells expressing TGF-β3 [1, 9]: 0% | growth of primary tumor cells cultured alone (in words) ([4]; ERK modified or unchanged): only inhibits the growth of cells in which the receptor acts NK1 through the MAP Kinases pathway | proliferation of primary tumor cells co-cultured with stromal fibroblasts (in words) [4, 11]: produces a proliferation of inhibition of tumor cells | growth of primary tumor cells cultured alone (in words) ([5]; AKT modified or unchanged): only inhibits the growth of cells in which said receptor acts through the PI3 Kinase pathway | proliferation of primary tumor cells co-cultured with stromal fibroblasts (in words) ([5]; irrespective of PI3 kinases pathway integrity): produces a proliferation of inhibition of tumor cells | growth of primary tumor cells cultured alone (in words) ([6]; ERK modified or unchanged): only inhibits the growth of cells in which said receptor acts through the MAP Kinases pathway | proliferation of primary tumor cells co-cultured with macrophages (in words) [6, 11]: produces a proliferation of inhibition of tumor cells | growth of primary tumor cells cultured alone (in words) ([7]; AKT modified or unchanged): only inhibits the growth of cells in which said receptor acts through the PI3 Kinase pathway | proliferation of primary tumor cells co-cultured with macrophages (in words) ([7]; irrespective of PI3 Kinase pathway integrity): produces a proliferation of inhibition of tumor cells | growth of primary tumor cells cultured alone (in words) [8]: does not inhibit the growth of tumor cells at low dose | proliferation of primary tumor cells co-cultured with stromal fibroblasts and immune/inflammatory cells (in words) [8]: produces a proliferation of inhibition of tumor cells

CC(=O)N1CCN([C@H]2CCN(C(=O)N(C)[C@H](C)c3cc(C(F)(F)F)cc(C(F)(F)F)c3)[C@@H](c3ccc(F)cc3C)C2)CC1 [Casopitant]
cells expressing MMP-3 [1, 9]: 0% | cells expressing MMP-7 [1, 9]: 0% | cells expressing MMP-9 [1, 9]: 0% | cells expressing MMP-11 [1, 9]: 0% | cells expressing MMP-13 [1, 9]: 0% | cells expressing MMP-14 [1, 9]: 0% | cells expressing SPARC [1, 9]: 0% | cells expressing TGF-α [1, 9]: 0% | cells expressing TGF-β1 [1, 9]: 0% | cells expressing TGF-β2 [1, 9]: 0% | cells expressing TGF-β3 [1, 9]: 0%
